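Cells were grown in 96-well plates and exposed to each compound for 48 hours at five concentrations; endpoints were interpolated linearly between bracketing concentrations, or set to the highest concentration if not reached. GI50 = concentration required for 50% inhibition of growth. The concentration for full growth arrest is given as TGI.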
What was measured:
Test in all cases: NCI anticancer screen, dose series, 48 h
[1] = test system: DU-145 prostate
[2] = test system: EKVX NSCLC
[3] = test system: TK-10 renal
[4] = test system: MDA-MB-435
[5] = test system: MOLT-4 leukemia
[6] = test system: HOP-62 NSCLC
[7] = test system: SK-MEL-5 melanoma
[8] = test system: T-47D breast
[9] = test system: UO-31 renal
[10] = test system: CCRF-CEM leukemia
[11] = test system: K-562 leukemia
[12] = test system: SF-295 CNS
[13] = test system: SK-MEL-28 melanoma
[14] = test system: ACHN renal
[15] = test system: SN12C renal
[16] = test system: SW-620 colon
[17] = test system: SK-OV-3 ovarian
[18] = test system: A498 renal
[19] = test system: SK-MEL-2 melanoma
[20] = test system: NCI/ADR-RES ovarian
[21] = test system: HS 578T breast
[22] = test system: MDA-MB-231 breast
[23] = test system: PC-3 prostate
[24] = test system: HCC-2998 colon
[25] = test system: SF-268 CNS
[26] = test system: OVCAR-8 ovarian
[27] = test system: HOP-92 NSCLC
[28] = test system: OVCAR-3 ovarian
[29] = test system: LOX IMVI melanoma

Compound: c1ccc(Nc2nc(-c3ccccn3)cs2)nc1
- GI50 [1]: 0.65 µM
- TGI [1]: > 100 µM
- GI50 [2]: 0.507 µM
- TGI [2]: > 56.9 µM
- GI50 [3]: 0.573 µM
- TGI [3]: > 100 µM
- GI50 [4]: 0.689 µM
- TGI [4]: > 53.5 µM
- GI50 [5]: 0.301 µM
- TGI [5]: > 27.2 µM
- GI50 [6]: 0.619 µM
- TGI [6]: > 100 µM
- GI50 [7]: 0.355 µM
- TGI [7]: 6.17 µM
- GI50 [8]: 0.698 µM
- TGI [8]: > 100 µM
- GI50 [9]: 0.0737 µM
- TGI [9]: 0.711 µM
- GI50 [10]: 0.259 µM
- TGI [10]: > 29.6 µM
- GI50 [11]: 0.413 µM
- TGI [11]: > 57.2 µM
- GI50 [12]: 0.297 µM
- TGI [12]: 6.61 µM
- GI50 [13]: 1.5 µM
- TGI [13]: > 100 µM
- GI50 [14]: 0.341 µM
- TGI [14]: > 100 µM
- GI50 [15]: 0.873 µM
- TGI [15]: > 100 µM
- GI50 [16]: 0.61 µM
- TGI [16]: 19.9 µM
- GI50 [17]: 0.74 µM
- TGI [17]: > 100 µM
- GI50 [18]: 0.266 µM
- TGI [18]: 13.5 µM
- GI50 [19]: 0.442 µM
- TGI [19]: 30.4 µM
- GI50 [20]: 0.103 µM
- TGI [20]: 2.89 µM
- GI50 [21]: 2.91 µM
- TGI [21]: > 100 µM
- GI50 [22]: 0.934 µM
- TGI [22]: > 100 µM
- GI50 [23]: 0.568 µM
- TGI [23]: > 89.9 µM
- GI50 [24]: 0.516 µM
- TGI [24]: 24.7 µM
- GI50 [25]: 0.346 µM
- TGI [25]: > 45.5 µM
- GI50 [26]: 0.395 µM
- TGI [26]: > 38.5 µM
- GI50 [27]: 2.49 µM
- TGI [27]: > 56.5 µM
- GI50 [28]: 0.273 µM
- TGI [28]: 19.6 µM
- GI50 [29]: 0.255 µM

Source: PubChem BioAssay (NCI)
